In ChEMBL document CHEMBL6134920, “Novel Heterocyclic Pyrimidine Derivatives as GSK3α Inhibitors” (ACS Med Chem Lett, 2025):

Assay: Inhibition of Nanoluc-GSK2alpha (unknown origin) expressed in HEK293 cells measured after overnight incubation by NanoBRET- cellular assay
Conditions: Homo sapiens

IC50	SMILES
2.4 nM	COCC(N)c1cncc(NC(=O)c2c(N)ncn(-c3c(Cl)cc(OC4CC4)cc3Cl)c2=O)c1 (stereo unspecified)
4.8 nM	CCNCc1cncc(NC(=O)c2c(N)ncn(-c3c(Cl)cc(OCC)cc3Cl)c2=O)c1
2.8 nM	COCC(N)c1cncc(NC(=O)c2c(N)ncn(-c3c(Cl)cc(C(F)F)cc3Cl)c2=O)c1 (stereo unspecified)
2.4 nM	COCc1cc(Cl)c(-n2cnc(N)c(C(=O)Nc3cncc(C(N)COC)c3)c2=O)c(Cl)c1 (stereo unspecified)
1.9 nM	CNC(COC)c1cncc(NC(=O)c2c(N)ncn(-c3c(Cl)cc(COC)cc3Cl)c2=O)c1 (stereo unspecified)
2 nM	Nc1ncn(-c2c(Cl)cc(C(F)CF)cc2Cl)c(=O)c1C(=O)Nc1cncc([C@H]2CCCCN2)c1 (stereo partly specified)
